Assay results as given in the supplement of paper PMC10307832.

Tests used:
Assay in all cases: relative viability (nuclei count vs DMSO), 5 days (fraction); higher = more cells survive
[1] = compound: CCC1=CN=CN=C1N2CCN(CC2)CC3=NC4=C(N3)C=C(C=C4)C(F)(F)F + C[C@@H](Oc1cc(-c2cnn(C3CCNCC3)c2)cnc1N)c1c(Cl)ccc(F)c1Cl [Crizotinib] (partner 1 µM)
In short: (§1)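 A single step with final 0.05% Triton X-100, 1% formaldehyde and 1 ug/ml Hoechst fixed the cells and stained nuclei 5 days after treatment. Lung cancer cell lines in 1536-well plates had been treated by pin tool the day after seeding with one drug alone or a fixed anchor-drug dose plus five library-drug doses (not always all listed) in √10 steps, and nuclei were counted on 4× images. Relative viability is the ratio of nuclei in treated wells to nuclei in vehicle wells, taken as the median of duplicate plates.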

[2] = compound: CCC1=CN=CN=C1N2CCN(CC2)CC3=NC4=C(N3)C=C(C=C4)C(F)(F)F + C[C@]1(O)C[C@@H](c2nc(-c3ccc4ccc(-c5ccccc5)nc4c3)c3c(N)nccn32)C1 [Linsitinib] (partner 1 µM)
In short: as §1

[3] = compound: CCC1=CN=CN=C1N2CCN(CC2)CC3=NC4=C(N3)C=C(C=C4)C(F)(F)F + Cc1nc(NC(=O)N2CCC[C@H]2C(N)=O)sc1-c1ccnc(C(C)(C)C(F)(F)F)c1 [Alpelisib] (partner 2 µM)
In short: as §1

[4] = compound: CCC1=CN=CN=C1N2CCN(CC2)CC3=NC4=C(N3)C=C(C=C4)C(F)(F)F + O=C(c1cc(Cc2n[nH]c(=O)c3ccccc23)ccc1F)N1CCN(C(=O)C2CC2)CC1 [Olaparib] (partner 8 µM)
In short: as §1

Cell Line	relative viability ([1]; first compound 0.04 µM)	relative viability ([1]; first compound 0.1265 µM)	relative viability ([1]; first compound 0.4 µM)	relative viability ([1]; first compound 1.265 µM)	relative viability ([1]; first compound 4 µM)	relative viability ([2]; first compound 0.04 µM)	relative viability ([2]; first compound 0.1265 µM)	relative viability ([2]; first compound 0.4 µM)	relative viability ([2]; first compound 1.265 µM)	relative viability ([2]; first compound 4 µM)	relative viability ([3]; first compound 0.04 µM)	relative viability ([3]; first compound 0.1265 µM)	relative viability ([3]; first compound 0.4 µM)	relative viability ([3]; first compound 1.265 µM)	relative viability ([3]; first compound 4 µM)	relative viability ([4]; first compound 0.04 µM)	relative viability ([4]; first compound 0.1265 µM)	relative viability ([4]; first compound 0.4 µM)	relative viability ([4]; first compound 1.265 µM)	relative viability ([4]; first compound 4 µM)
201T	0.985	0.993	1.03	1.02	1.12	0.922	1.04	0.998	0.88	1.01	1	0.988	0.995	0.902	1.06	0.816	0.831	0.866	0.814	0.853
A549	0.734	0.801	0.816	0.829	0.827	0.596	0.549	0.629	0.28	0.615	0.763	0.657	0.849	0.698	0.831	0.318	0.179	0.333	0.333	0.387
A-427	0.918	0.825	1.04	0.714	0.865	1.12	1.11	1.03	1.05	0.857	1.08	1.08	0.99	0.986	0.791	0.683	0.72	0.636	0.698	0.595
ABC-1	1.09	1.04	1.38	1.11	0.852	0.873	0.777	0.676	0.631	0.831	0.987	1	1.08	0.942	0.971			0.646	0.649	0.536
BEN	0.924	0.868	0.963	0.532	0.662	0.868	0.82	0.802	0.531	0.477	0.961	0.965	0.898	0.574	0.583	1.01	1.08	1.03	0.629	0.598
CAL-12T	0.629	0.621	0.805	0.808	1.12	0.744	0.771	0.731	0.754	0.901	1.25	1.16	1.06	1.32	1.09	0.75	0.726	0.721	0.661	0.667
COR-L23	0.58	0.621	0.66	0.694	0.975	0.864	0.94	0.815	0.874	0.914	0.899	0.721	0.886	0.702	0.783	0.351	0.316	0.332	0.344	0.356
COR-L 105	0.861	0.795	0.972	0.922	1.24	0.953	0.925	0.873	0.839	0.977	1.07	0.847	0.966	0.893	0.894	0.654	0.711	0.623	0.648	0.762
